# Key:
# Type in all cases: physicochemical
# [1] = Stability of M6G salts at room temperature over 6 years, HPLC; conditions: for Assay M6G corr.: content calculated as M6G derivative
# [2] = Colour of solution by visible spectrophotometry on storage (Example 3); conditions: 5% w/v solution in water
# Method: Colour of solution by UV spectrophotometry.
# (§1) Each test material was stored between 2-8*C prior to placing on stability. Each material was sub-divided into 900 mg aliquots, transferred to brown opaque HDPE plastic bottles and flushed with Argon prior to sealing. Sufficient samples were provided for each time point as well as spares for each storage condition. The samples were placed in appropriate incubators previously commissioned at storage conditions 25° C./60% RH, 40° C./75% RH and 60° C.
# Colour by Visible Spectrophotometry
# A 5% w/v solution of test material was prepared in water and the absorbance measured at 420 nm in a 1 cm silica cell using a Unicam UV4 Visible/UV spectrophotometer.
# [3] = Visual appearance on storage (Example 3)
# Method: as §1
# The samples were stored for analysis according to the following table: […]
# [4] = Stability indicating HPLC assay and related substances on storage (Example 3)
# Method: Assay (% w/w) and related substances determination
# as §1
# Testing Procedures Test for Identity Content and Impurities
# Testing was performed in duplicate (2×25 mg) in accordance with a stability indicating HPLC assay method. The assay results were reported as M6G as is, M6G as the anhydrous, solvent free material and the anhydrous solvent free material corrected for the salt form using the relevant conversion factor.
# [5] = Water content by Karl Fisher analysis on storage (Example 3)
# Method: Water content (% w/w) by Karl Fisher analysis
# as §1
# Water Content by Karl Fisher Analysis
# Water content was determined in duplicate on an aliquot of equilibrated material (approximately 100 mg) using a Tritrino 720 KFS Titrator.
# [6] = almost 6 years at room temperature
smiles,measurement,setting,value
CN1CCC23c4c5ccc(O)c4OC2C(OC2OC(C(=O)O)C(O)C(O)C2O)C=CC3C1C5.CN1CCC23c4c5ccc(O)c4OC2C(OC2OC(C(=O)O)C(O)C(O)C2O)C=CC3C1C5.O=S(=O)(O)O (centres unmarked) [Morphine-6-glucuronide sulphate],HN-33177,[1]; 0 years,0.2%
same,HN-75083,[1]; 0 years,<0.1%
same,Unknown related substances (sum area %),[1]; 0 years,0.2 area %
same,Assay M6G corr.,[1]; 0 years,93.6%
same,HN-33177,[1]; 6 years at ambient temperature,0.3%
same,HN-67002,[1]; 6 years at ambient temperature,1.1%
same,HN-67003,[1]; 6 years at ambient temperature,1.8%
same,Morphine,[1]; 6 years at ambient temperature,0.2%
same,Unknown related substances (sum area %),[1]; 6 years at ambient temperature,10.7 area %
same,Assay M6G corr.,[1]; 6 years at ambient temperature,76.8%
same,HN-33177,"[1]; 6 years at ambient temperature, listed as M6G2.H2SO4",did not change
same,largest unidentified peak,[1]; [6],6.55 area %
same,peaks present in the chromatogram that cannot be identified by retention time,[1]; [6],13
same,Colour,"[2]; 1 month, 25° C./60% RH",0.244 Abs@420 nm
same,Colour,"[2]; 1 month, 40° C./75% RH",0.430 Abs@420 nm
same,Colour,"[2]; 1 month, 60° C.",1.714 Abs@420 nm
same,Colour,"[2]; 3 months, 25° C./60% RH",0.406 Abs@420 nm
same,Colour,"[2]; 3 months, 40° C./75% RH",1.056 Abs@420 nm
same,Colour,[2]; Initial,0.136 Abs@420 nm
same,Appearance,"[3]; 1 month, 25° C./60% RH",White crystalline powder
same,Appearance,"[3]; 1 month, 40° C./75% RH",Slightly yellow crystalline powder
same,Appearance,"[3]; 1 month, 60° C.",Pale yellow crystalline powder
same,Appearance,"[3]; 3 months, 25° C./60% RH",Pale yellow crystalline powder
same,Appearance,"[3]; 3 months, 40° C./75% RH",Slightly yellow crystalline powder
same,Appearance,[3]; Initial,White crystalline powder
same,Known Related Substances HN33177,"[4]; 1 month, 25° C./60% RH",0.63%
same,Known Related Substances HN67003,"[4]; 1 month, 25° C./60% RH",0.69%
same,Known Related Substances HN75083,"[4]; 1 month, 25° C./60% RH",0.27%
same,"M6G Assay, Anhydrous basis","[4]; 1 month, 25° C./60% RH",81.82 % w/w
same,"M6G Assay, As is basis","[4]; 1 month, 25° C./60% RH",73.58 % w/w
same,"M6G Assay, Corrected for the salt form","[4]; 1 month, 25° C./60% RH",90.51 % w/w
same,Total Known,"[4]; 1 month, 25° C./60% RH",1.59%
same,Total Related Substances,"[4]; 1 month, 25° C./60% RH",4.29%
same,Total Unknown,"[4]; 1 month, 25° C./60% RH",2.70%
same,Known Related Substances HN33177,"[4]; 1 month, 40° C./75% RH",0.50%
same,Known Related Substances HN67003,"[4]; 1 month, 40° C./75% RH",1.58%
same,Known Related Substances HN75076,"[4]; 1 month, 40° C./75% RH",0.06%
same,Known Related Substances HN75083,"[4]; 1 month, 40° C./75% RH",0.74%
same,Known Related Substances Morphine,"[4]; 1 month, 40° C./75% RH",0.21%
same,"M6G Assay, Anhydrous basis","[4]; 1 month, 40° C./75% RH",73.67 % w/w
same,"M6G Assay, As is basis","[4]; 1 month, 40° C./75% RH",65.04 % w/w
same,"M6G Assay, Corrected for the salt form","[4]; 1 month, 40° C./75% RH",81.50 % w/w
same,Total Known,"[4]; 1 month, 40° C./75% RH",3.09%
same,Total Related Substances,"[4]; 1 month, 40° C./75% RH",9.78%
same,Total Unknown,"[4]; 1 month, 40° C./75% RH",6.69%
same,Known Related Substances HN33177,"[4]; 1 month, 60° C.",0.23%
same,Known Related Substances HN67003,"[4]; 1 month, 60° C.",2.73%
same,Known Related Substances HN75076,"[4]; 1 month, 60° C.",0.26%
same,Known Related Substances HN75083,"[4]; 1 month, 60° C.",0.61%
same,Known Related Substances Morphine,"[4]; 1 month, 60° C.",0.72%
same,"M6G Assay, Anhydrous basis","[4]; 1 month, 60° C.",63.84 % w/w
same,"M6G Assay, As is basis","[4]; 1 month, 60° C.",57.15 % w/w
same,"M6G Assay, Corrected for the salt form","[4]; 1 month, 60° C.",70.62 % w/w
same,Total Known,"[4]; 1 month, 60° C.",4.55%
same,Total Related Substances,"[4]; 1 month, 60° C.",18.25%
same,Total Unknown,"[4]; 1 month, 60° C.",13.70%
same,Known Related Substances HN33177,"[4]; 3 months, 25° C./60% RH",0.52%
same,Known Related Substances HN67003,"[4]; 3 months, 25° C./60% RH",1.36%
same,Known Related Substances HN75083,"[4]; 3 months, 25° C./60% RH",0.53%
same,Known Related Substances Morphine,"[4]; 3 months, 25° C./60% RH",0.17%
same,"M6G Assay, Anhydrous basis","[4]; 3 months, 25° C./60% RH",77.05 % w/w
same,"M6G Assay, As is basis","[4]; 3 months, 25° C./60% RH",69.08 % w/w
same,"M6G Assay, Corrected for the salt form","[4]; 3 months, 25° C./60% RH",85.24 % w/w
same,Total Known,"[4]; 3 months, 25° C./60% RH",2.58%
same,Total Related Substances,"[4]; 3 months, 25° C./60% RH",9.16%
same,Total Unknown,"[4]; 3 months, 25° C./60% RH",6.58%
same,Known Related Substances HN33177,"[4]; 3 months, 40° C./75% RH",0.23%
same,Known Related Substances HN67003,"[4]; 3 months, 40° C./75% RH",1.72%
same,Known Related Substances HN75076,"[4]; 3 months, 40° C./75% RH",0.04%
same,Known Related Substances HN75083,"[4]; 3 months, 40° C./75% RH",0.58%
same,Known Related Substances Morphine,"[4]; 3 months, 40° C./75% RH",0.37%
same,"M6G Assay, Anhydrous basis","[4]; 3 months, 40° C./75% RH",68.38 % w/w
same,"M6G Assay, As is basis","[4]; 3 months, 40° C./75% RH",59.39 % w/w
same,"M6G Assay, Corrected for the salt form","[4]; 3 months, 40° C./75% RH",75.64 % w/w
same,Total Known,"[4]; 3 months, 40° C./75% RH",2.75%
same,Total Related Substances,"[4]; 3 months, 40° C./75% RH",17.98%
same,Total Unknown,"[4]; 3 months, 40° C./75% RH",15.23%
same,stability assessment,"[4]; 25° C./60% RH, three months",least stable
same,Known Related Substances HN33177,[4]; Initial,0.69%
same,Known Related Substances HN67003,[4]; Initial,0.15%
same,Known Related Substances HN75076,[4]; Initial,0.01%
same,Known Related Substances HN75083,[4]; Initial,0.23%
same,"M6G Assay, Anhydrous basis",[4]; Initial,88.49 % w/w
same,"M6G Assay, As is basis",[4]; Initial,80.62 % w/w
same,"M6G Assay, Corrected for the salt form",[4]; Initial,97.87 % w/w
same,Total Known,[4]; Initial,1.08%
same,Total Related Substances,[4]; Initial,1.72%
same,Total Unknown,[4]; Initial,0.64%
same,overall stability comparison,[4]; overall review of Example 3 data,least stable
same,Moisture,"[5]; 1 month, 25° C./60% RH",4.28 % w/w
same,Moisture,"[5]; 1 month, 40° C./75% RH",5.93 % w/w
same,Moisture,"[5]; 1 month, 60° C.",4.68 % w/w
same,Moisture,"[5]; 3 months, 25° C./60% RH",5.54 % w/w
same,Moisture,"[5]; 3 months, 40° C./75% RH",8.31 % w/w
same,Moisture,[5]; Initial,3.77 % w/w

# — US20060166900A1, “Salt of morphine-6-glucuronide” (CeNeS Limited, priority 2002, published 2006)
